According to article PMC6361841, “Repurposing of Drugs as Novel Influenza Inhibitors From Clinical Gene Expression Infection Signatures” (Frontiers in Immunology, 2019):
Like-named read-outs stand apart in the source and are kept apart here.

Legend:
[1] = test system: A/Lyon/969/09 (H1N1)pdm09 virus; test: microbe, parasite or virus in culture; format: cell-based, influenza A(H1N1)pdm09 virus; settings: Influenza A virus, H1N1, 48 h; pre-treatment/treatment in vitro; A549; […]; read-out: EC50
A/Texas/126/2016 (H3N2) = test: Antiviral efficacy in A549 cells, H3N2 strain; format: cell-based, influenza virus
B/Massachusetts/2/2106 = test: Antiviral efficacy in A549 cells, B strain; format: cell-based, influenza virus
A(H1N1)pdm09 virus = format: cell-based, influenza virus
[2] = test system: influenza A/Quebec/144147/09 (H1N1)pdm09 virus; format: in vivo, C57BL/6N mice
[3] = test system: influenza A/Quebec/144147/09 (H1N1)pdm09 virus; format: in vivo, C57BL/6N mice; remark: listed apart in the source
[4] = test system: influenza A/Lyon/969/09 (H1N1)pdm09 virus; format: cell-based
[5] = test system: MucilAir® human airway epithelium; format: cell-based
[6] = test system: MucilAir® human airway epithelia (HAE); test: LDH cytotoxicity in HAE; settings: oseltamivir 1 μM, diltiazem 90 μM, combinations
[7] = […], oseltamivir 10 mg/kg/day, diltiazem 90 mg/kg/day
[8] = 24 h p.i., oseltamivir 0.1 µM, diltiazem 9 µM or both
[9] = 48 h p.i., oseltamivir 0.1 µM, diltiazem 9 µM or both
[10] = 72 h p.i., oseltamivir 0.1 µM, diltiazem 9 µM or both
[11] = 96 h p.i., oseltamivir 0.1 µM, diltiazem 9 µM or both
[12] = oseltamivir 1 μM, diltiazem 90 μM

## COc1ccc([C@@H]2Sc3ccccc3N(CCN(C)C)C(=O)[C@@H]2OC(C)=O)cc1 [Diltiazem]
[1]
  EC50: 0.84 nM
A/Texas/126/2016 (H3N2); dose CMAP
  Relative Viral production: 7.9 % of mock-treated
  Viral titer: 4.92 log TCID50/ml
A/Texas/126/2016 (H3N2); dose CMAP/10
  Relative Viral production: 12.75 % of mock-treated
  Viral titer: 5.13 log TCID50/ml
B/Massachusetts/2/2106; dose CMAP
  Relative Viral production: 4.7 % of mock-treated
  Viral titer: 3.97 log TCID50/ml
B/Massachusetts/2/2106; dose CMAP/10
  Relative Viral production: 10.0 % of mock-treated
  Viral titer: 4.3 log TCID50/ml
A(H1N1)pdm09 virus; pre-incubation before infection
  Effect of virus pre-incubation on final viral titers vs PBS-incubated controls: did not affect final viral titers
A(H1N1)pdm09 virus; virus 10^5 TCID50/mL pre-incubated 1 h, diltiazem 9 µM, etilefrine 18 µM, oseltamivir 1 µM
  Viral titer, Dilution #2: 4.63 log TCID50/ml
A(H1N1)pdm09 virus; virus 10^6 TCID50/mL pre-incubated 1 h, diltiazem 9 µM, etilefrine 18 µM, oseltamivir 1 µM
  Viral titer, Dilution #1: 5.63 log TCID50/ml
A(H1N1)pdm09 virus; virus pre-incubated 1 h, relative to PBS control
  Mean relative Viral production: 156.9 % of mock-treated
[2]; […], mg/kg/day: oseltamivir 10, monensin 10, diltiazem 90, etilefrine 3, lanatoside C 100, prednisolone 5, flucytosine 240, felbinac 5, timolol 50
  Clinical benefit in terms of survival vs saline (placebo) group: significantly improved survival
[2]; […], oseltamivir 10, diltiazem 90, etilefrine 3 mg/kg/day
  Weight loss vs saline (placebo) group: significantly improved
[2]; mouse, in vivo
  Reduction in lung viral titers (LVTs) on day 5 p.i.: at least 1 log
[3]; […], diltiazem 45 mg/kg
  Hazard ratio (HR) for the saline group compared to treatment group (CI95): 7.62 (1.49–38.96)
[3]; […], half-dose diltiazem 45 mg/kg
  Mice rescued from death: 30%
[3]; […], mg/kg/day: oseltamivir 10, monensin 10, diltiazem 90, etilefrine 3
  Survival: completely prevented mortality
[3]; [7]
  Hazard ratio (HR) for the saline group compared to treatment group (CI95): 2.85 (0.56–14.47)
  Mice rescued from death: 20%
[3]; […], oseltamivir 10, monensin 10, diltiazem 90 mg/kg/day
  Weight loss: reduced weight loss
[3]; mouse, in vivo
  Mean weight loss: significant improvement
[4]; [8]
  Apical viral titer log TCID50/ml (CI95): 6.47 (5.03 – 7.90) log TCID50/ml
[4]; [9]
  Apical viral titer log TCID50/ml (CI95): 8.91 (8.67 – 9.16) log TCID50/ml
[4]; [10]
  Apical viral titer log TCID50/ml (CI95): 8.21 (7.28 – 9.14) log TCID50/ml
[4]; [11]
  Apical viral titer log TCID50/ml (CI95): 7.32 (6.43 – 8.22) log TCID50/ml
[4]; 96 h p.i., oseltamivir 1 µM, diltiazem 90 µM or both
  Apical viral titer log TCID50/ml (CI95): 7.37 (5.97 – 8.76) log TCID50/ml
[4]; oseltamivir 0.1 μM, diltiazem 9 μM (CMAP) or both, from 5 h p.i., once daily 5 days
  Effect on viral replication vs untreated control: no significant advantage over the untreated control
[4]; [12]
  Reduction in apical viral titers at 48 h p.i. compared to the untreated control: > 3 log
  Virus on the basolateral medium: No virus was detected
[4]; oseltamivir 1 μM, diltiazem 90 μM (10-fold CMAP)
  Delay of the peak of viral production: 24 h
[4]; oseltamivir 1 μM, diltiazem 90 μM or both, 48 h p.i. untreated vs. 72 h p.i. treated
  Reduction in apical peak viral titers compared to the untreated control: > 2 log
[5]; [8]
  Δ TEER (CI95): 35.10 (10.96 – 59.23) Ohm/cm^2
[5]; 24 h p.i., oseltamivir 1 µM, diltiazem 90 µM or both
  Δ TEER (CI95): 86.13 (3.72 – 168.5) Ohm/cm^2
[5]; [9]
  Δ TEER (CI95): -48.31 (-180.1 – 83.47) Ohm/cm^2
[5]; 48 h p.i., oseltamivir 1 µM, diltiazem 90 µM or both
  Δ TEER (CI95): 120.1 (-85.77 – 326.00) Ohm/cm^2
[5]; [10]
  Δ TEER (CI95): -218.0 (255.6 – -180.4) Ohm/cm^2
[5]; 72 h p.i., oseltamivir 1 µM, diltiazem 90 µM or both
  Δ TEER (CI95): -115.5 (-308.5 – 77.52) Ohm/cm^2
[5]; [11]
  Δ TEER (CI95): -220.5 (-267.4 – -173.5) Ohm/cm^2
[5]; oseltamivir 1 μM, diltiazem 90 μM or both
  TEER during the time-course of infection: partially buffered the TEER decrease
[6]
  Treatment-induced toxicity (LDH release): absence of treatment-induced toxicity
